According to US20160296511A1, “LAQUINIMOD FOR REDUCING THALAMIC DAMAGE IN MULTIPLE SCLEROSIS” (Teva Pharmaceutical Industries, Ltd., priority 2012, published 2016):
Marks after values point to notes of the source that are not given here.

Key:
RRMS patients = conditions: cited from earlier work
subjects with RRMS [1] = experiment: ALLEGRO sub-study: WM, GM and thalamic volume analysis (3D T1-weighted MRI); assay type: in vivo, human; conditions: for Grey matter fraction, % change, median (range) / Thalamic fraction, % change, LS mean (SE) / White matter fraction, % change, median (range): laquinimod 0.6 mg/day oral; for Grey matter fraction, treatment effect (Hodges-Lehmann median estimate for treatment difference) / Thalamic fraction, treatment effect (LS mean difference) / White matter fraction, treatment effect (Hodges-Lehmann median estimate for treatment difference): laquinimod vs placebo; for Treatment effect of laquinimod on thalamic fraction: patients with thalamic lesions at baseline
Description: WM, GM, and thalamic volumes were derived from 3D T1-weighted images at baseline and at months 12 and 24. Patients with baseline and at least one valid scheduled post-baseline MRI were included in the analysis. Patients with thalamic lesions at baseline and a valid post-baseline MRI were included in the thalamic lesion analysis. Longitudinal WM and GM volume changes were calculated as the percentage difference from baseline to months 12 and 24. A separate calculation was performed between months 12 and 24. […] The ANCOVA (SAS® PROC GLM) model used treatment group, baseline value of the outcome, number of GdE lesions at baseline and country/geographic region, as covariates. Additionally, analyses of percentage changes in WM volume were also adjusted for GM volume at baseline due to the imbalance that was found between treatment groups at baseline. The Hodges-Lehmann (HL) large sample median estimator associated with the ranked values analysis approach was used to construct two-sided 95% confidence limits for the difference in treatment effects. Percent thalamic volume changes from baseline to months 12 and 24 followed normal distribution and thus were analysed using a parametric MMRM (SAS® PROC MIXED) model corrected for baseline thalamic volume, number of baseline GdE lesions, country/geographic region, visit, treatment and visit by treatment interaction. The least square (LS) mean difference was used to estimate treatment effect. As noted for the % change in WM and GM volumes, percent thalamic volume change from month 12 to month 24 was analyzed using a separate analysis of covariance (ANCOVA) (SAS® PROC GLM) model, since these values […] from the MMRM model. The ANCOVA model used treatment group, baseline thalamic volume, number of baseline GdE lesions and country/geographic region, as covariates. GM at baseline was used as an additional covariate to account for between treatment group imbalance in this measure at baseline.

subjects with RRMS [2] = experiment: ALLEGRO sub-study: 1H-MRS, NAA/Cr ratio in WM; assay type: in vivo, human; conditions: at 24 months; difference vs placebo not statistically significant (p=0.179), N=27
Description: • 1. Frequent MRI (selected countries and sites only): The cumulative number of T1-Gd enhancing lesions taken from scans obtained at months 0, 3, 6, 12, and 24, and in case the study is be extended, 30. Additional MRIs for the ancillary study are performed at months 3 and 6. • 2. Magnetization Transfer (MT) (selected countries and sites only): the change from baseline to month 12 and 24/30 months in magnetization transfer MRI. MT was assessed at months 0 (baseline), 12 and 24 (termination/early discontinuation). In case of the 6 months extended study, the last MT was performed at month 30 (termination/early discontinuation of the extended study) instead of month 24. • 3. Proton MR Spectroscopy (^1H-MRS) (selected countries and sites only): Change from baseline to 24/30 in ^1H-MRS metabolites. ^1H-MRS was assessed at months 0 (baseline), and 24 (termination/early discontinuation). In case of the 6 months extended study, the last ^1H-MRS was performed at month 30 (termination/early discontinuation of the extended study) instead of month 24. • 4. Pharmacogenetic (PGx) assessment: Blood samples for PGx parameters were collected from all subjects at screening. • 5. […] Changes in NAA/Cr from baseline to month 24 was analyzed using ANCOVA.

subjects with RRMS [3] = experiment: ALLEGRO sub-study: evolution of GdE and new T2 lesions into permanent black holes (PBH), frequent MRI group; assay type: in vivo, human; conditions: for Number of PBH from GdE lesions, adjusted mean (SE) / PBH from GdE lesions, RR (risk ratio) laquinimod vs placebo / Number of PBH from active lesions, adjusted mean (SE) / Number of PBH from new T2 lesions, mean (SE) / PBH from active lesions, RR (risk ratio) laquinimod vs placebo / PBH from new T2 lesions, RR (risk ratio) laquinimod vs placebo: 0.6 mg
Excerpt: A subset of patients in ALLEGRO comprised a “frequent MRI” group for PBH analysis; these patients had MRIs taken at months 3, 6, 12 and 24. Patients in the frequent MRI group with active lesions at baseline or during the study were included in the PBH analysis. A negative binomial regression analysis was used to estimate the mean number of PBH at months 12 and 24 that evolved from GdE and new T2 lesions detected at various time points in the study in the “frequent MRI” subgroup.

[4] = PBH at Month 12 from lesions at Baseline
[5] = PBH at Month 12 from lesions at Month 3
[6] = PBH at Month 12 from lesions at Months 3 and 6
[7] = PBH at Month 24 from All lesions
[8] = PBH at Month 24 from lesions at Baseline
[9] = PBH at Month 24 from lesions at Month 3
[10] = PBH at Month 24 from lesions at Months 3, 6, and 12

CCN(C(=O)c1c(O)c2c(Cl)cccc2n(C)c1=O)c1ccccc1 [Laquinimod]
Disability and brain atrophy progression (RRMS patients; 0.6 mg/day, RRMS patients): slowed disability and brain atrophy progression | Rate of whole brain atrophy compared with placebo (RRMS patients; ALLEGRO and BRAVO): decreased the rate of whole brain atrophy | Safety and tolerability profile (RRMS patients; two phase III trials): favorable safety and tolerability profile | Grey matter fraction, % change, median (range) (subjects with RRMS [1]; baseline to month 12): −0.3 (−19.4 to 22.4) % | Thalamic fraction, % change, LS mean (SE) (subjects with RRMS [1]; baseline to month 12): −0.6 (0.12) % | White matter fraction, % change, median (range) (subjects with RRMS [1]; baseline to month 12): 0.0 (−24.7 to 11.9) % | Grey matter fraction, treatment effect (Hodges-Lehmann median estimate for treatment difference) (subjects with RRMS [1]; baseline to month 12): 0.502* % | Thalamic fraction, treatment effect (LS mean difference) (subjects with RRMS [1]; baseline to month 12): 0.408^† % | White matter fraction, treatment effect (Hodges-Lehmann median estimate for treatment difference) (subjects with RRMS [1]; baseline to month 12): 0.394* % | Grey matter fraction, % change, median (range) (subjects with RRMS [1]; baseline to month 24): −0.9 (−17.4 to 21.2) % | Thalamic fraction, % change, LS mean (SE) (subjects with RRMS [1]; baseline to month 24): −1.3 (0.15) % | White matter fraction, % change, median (range) (subjects with RRMS [1]; baseline to month 24): −0.3 (−27.3 to 19.2) % | Grey matter fraction, treatment effect (Hodges-Lehmann median estimate for treatment difference) (subjects with RRMS [1]; baseline to month 24): 0.372* % | Thalamic fraction, treatment effect (LS mean difference) (subjects with RRMS [1]; baseline to month 24): 0.60^† % | White matter fraction, treatment effect (Hodges-Lehmann median estimate for treatment difference) (subjects with RRMS [1]; baseline to month 24): 0.327* % | Grey matter fraction, % change, median (range) (subjects with RRMS [1]; month 12 to month 24): −0.7 (−11.5 to 16.6) % | Thalamic fraction, % change, LS mean (SE) (subjects with RRMS [1]; month 12 to month 24): −0.7 (0.13) % | White matter fraction, % change, median (range) (subjects with RRMS [1]; month 12 to month 24): −0.2 (−15.3 to 15.0) % | Grey matter fraction, treatment effect (Hodges-Lehmann median estimate for treatment difference) (subjects with RRMS [1]; month 12 to month 24): −0.078* % | Thalamic fraction, treatment effect (LS mean difference) (subjects with RRMS [1]; month 12 to month 24): 0.233^† % | White matter fraction, treatment effect (Hodges-Lehmann median estimate for treatment difference) (subjects with RRMS [1]; month 12 to month 24): −0.013* % | Treatment effect of laquinimod on thalamic fraction (subjects with RRMS [1]; 12 months (p=0.018)): statistically significant | Treatment effect of laquinimod on thalamic fraction (subjects with RRMS [1]; 24 months (p<0.0001)): statistically significant | Treatment effect of laquinimod on thalamic fraction change vs placebo (subjects with RRMS [1]; patients without T2 thalamic lesions at baseline, month 12 or 24): not significantly different | WM NAA/Cr ratio (subjects with RRMS [2]): tended to increase | Number of PBH from GdE lesions, adjusted mean (SE) (subjects with RRMS [3]; [4]): 0.5 (0.16) [26] | PBH from GdE lesions, RR (risk ratio) laquinimod vs placebo (subjects with RRMS [3]; [4]): 0.53 | Number of PBH from GdE lesions, adjusted mean (SE) (subjects with RRMS [3]; [5]): 0.6 (0.25) [14] | Number of PBH from active lesions, adjusted mean (SE) (subjects with RRMS [3]; [5]): 0.41 (0.14) [29] | Number of PBH from new T2 lesions, mean (SE) (subjects with RRMS [3]; [5]): 0.40 (0.15) [28] | PBH from GdE lesions, RR (risk ratio) laquinimod vs placebo (subjects with RRMS [3]; [5]): 0.58 | PBH from active lesions, RR (risk ratio) laquinimod vs placebo (subjects with RRMS [3]; [5]): 0.44 | PBH from new T2 lesions, RR (risk ratio) laquinimod vs placebo (subjects with RRMS [3]; [5]): 0.52 | Number of PBH from GdE lesions, adjusted mean (SE) (subjects with RRMS [3]; [6]): 0.6 (0.18) [25] | Number of PBH from active lesions, adjusted mean (SE) (subjects with RRMS [3]; [6]): 0.59 (0.15) [41] | Number of PBH from new T2 lesions, mean (SE) (subjects with RRMS [3]; [6]): 0.57 (0.16) [40] | PBH from GdE lesions, RR (risk ratio) laquinimod vs placebo (subjects with RRMS [3]; [6]): 0.45 | PBH from active lesions, RR (risk ratio) laquinimod vs placebo (subjects with RRMS [3]; [6]): 0.42 | PBH from new T2 lesions, RR (risk ratio) laquinimod vs placebo (subjects with RRMS [3]; [6]): 0.48 | Number of PBH from GdE lesions, adjusted mean (SE) (subjects with RRMS [3]; [7]): 1.0 (0.20) [41] | Number of PBH from active lesions, adjusted mean (SE) (subjects with RRMS [3]; [7]): 1.20 (0.19) [55] | Number of PBH from new T2 lesions, mean (SE) (subjects with RRMS [3]; [7]): 0.87 (0.17) [51] | PBH from GdE lesions, RR (risk ratio) laquinimod vs placebo (subjects with RRMS [3]; [7]): 0.45 | PBH from active lesions, RR (risk ratio) laquinimod vs placebo (subjects with RRMS [3]; [7]): 0.51 | PBH from new T2 lesions, RR (risk ratio) laquinimod vs placebo (subjects with RRMS [3]; [7]): 0.52 | Number of PBH from GdE lesions, adjusted mean (SE) (subjects with RRMS [3]; [8]): 0.6 (0.17) [26] | PBH from GdE lesions, RR (risk ratio) laquinimod vs placebo (subjects with RRMS [3]; [8]): 0.65 | Number of PBH from GdE lesions, adjusted mean (SE) (subjects with RRMS [3]; [9]): 0.6 (0.24) [14] | Number of PBH from active lesions, adjusted mean (SE) (subjects with RRMS [3]; [9]): 0.47 (0.14) [29] | Number of PBH from new T2 lesions, mean (SE) (subjects with RRMS [3]; [9]): 0.43 (0.14) [28] | PBH from GdE lesions, RR (risk ratio) laquinimod vs placebo (subjects with RRMS [3]; [9]): 0.55 | PBH from active lesions, RR (risk ratio) laquinimod vs placebo (subjects with RRMS [3]; [9]): 0.45 | PBH from new T2 lesions, RR (risk ratio) laquinimod vs placebo (subjects with RRMS [3]; [9]): 0.50 | Number of PBH from GdE lesions, adjusted mean (SE) (subjects with RRMS [3]; [10]): 0.7 (0.19) [32] | Number of PBH from active lesions, adjusted mean (SE) (subjects with RRMS [3]; [10]): 0.95 (0.18) [52] | Number of PBH from new T2 lesions, mean (SE) (subjects with RRMS [3]; [10]): 0.87 (0.17) [51] | PBH from GdE lesions, RR (risk ratio) laquinimod vs placebo (subjects with RRMS [3]; [10]): 0.44 | PBH from active lesions, RR (risk ratio) laquinimod vs placebo (subjects with RRMS [3]; [10]): 0.50 | PBH from new T2 lesions, RR (risk ratio) laquinimod vs placebo (subjects with RRMS [3]; [10]): 0.52 | Number of PBH evolved from GdE lesions present at baseline, placebo vs laquinimod (subjects with RRMS [3]; at 12 and 24 months): no difference
